Reference: publication PMC8533176, “1,5-Benzodiazepin-2(3H)-ones: In Vitro Evaluation as Antiparkinsonian Agents” (Antioxidants, 2021)

Columns and labels:
SH-SY5Y cells [1] = assay: cells; format: cell-based, human
SH-SY5Y cells [2] = assay: Resazurin cell viability assay under H2O2; format: cell-based, human; settings: 24-h incubation, resazurin
SH-SY5Y cells [3] = assay: LDH release under H2O2; format: cell-based, human; settings: H2O2 250 µM 24 h; compounds 24 h before; Figure 9
HepG2 cells = assay: Cytotoxicity, MTT assay, HepG2; format: cell-based; settings: Homo sapiens, HepG2; MTT, cytotoxicity; read-out: HepG2 IC50
Procedure: (§1) All compounds tested were dissolved and eventually further diluted in dimethylsulfoxide (DMSO). After overnight incubation, the cells were treated with different compound concentrations (5, 10, 20, 50, 100, 150, 200 µM) in a final volume of 200 µL with four replicates each. […] Cell proliferation or viability was measured using the 3-(4,5-dimethylthiazol-2-yl)-2,5-diphenyl tetrazolium bromide (MTT) assay. The MTT assay was optimized taking into account the number of cells plated per well, to work in the linear part of the cell density vs. MTT absorbance calibration curve, which allows achieving a maximum absorbance in the range of 0.8–1.0 in each well at the end of the experiment. In addition to that, the number of cells seeded for each experiment was optimized in agreement with the time scale of the experiment.
(§2) After cell treatment, 20 µL of MTT (5 mg/mL) was added to each well, and the plate was incubated at 37 °C in the dark for 2 h. Supernatants were removed, and the formazan crystals were solubilized in DMSO (200 µL/well), under 10 min shaking at room temperature. The reduction of MTT was quantified by absorbance at 570 nm in a Varioskan microplate reader (Thermo Fisher Scientific, Vantaa, Finland). Effects of the test compounds on cell viability were calculated using cells treated with a vehicle as a control. For IC50 and LD50 calculations, the data were subjected to linear regression analysis, and the regression lines were plotted for the best fit. The IC50 (inhibition of cell viability) concentrations were calculated using the respective dose–response curves.

SH-SY5Y cells [4] = assay: Mitochondrial superoxide levels (MitoSOX); format: cell-based, human; settings: H2O2 250 µM; compounds 24 h before
Procedure: Mitochondrial superoxide levels were measured with MitoSOX red (3,8-phenanthridinediamine, 5-(60-triphenylphosphoniumhexyl)-5,6-dihydro-6-phenyl) from Molecular Probes (Thermo Fisher Scientific, 29851Willow Creek Road, Eugene, OR, USA). After SH-SY5Y cell treatment in 96-well culture black clear bottom plates, the medium was removed and cells were washed with PBS and afterward, MitoSOX red (final concentration of 5 µM) in 200 µL of PBS was added and incubated for 20 min at 37 °C. After incubation, the cells were washed with warm PBS buffer, and fluorescence was measured at 510 nm excitation/640 nm emission wavelengths in a Varioskan microplate reader (Thermo Fisher Scientific, Vantaa, Finland).

SH-SY5Y cells [5] = assay: Lipid peroxidation (MDA, TBARS); format: cell-based, human; settings: 250 µM H2O2 24 h; 10 and 20 µM 24 h before
Procedure: For MDA studies, 2 × 10^5 SH-SY5Y cells were seeded in 6-well culture plates. After 24 h, cells were treated with the test compound and incubated for another 24 h. After compound treatment, cells were exposed to H2O2 for 24 h. Then, the cells were washed twice with cold 50 mM PBS buffer, detached, and lysed with lysis buffer, and TBA was added to each sample tube and vortexed. The reaction mixture was incubated at 96 °C for 60 min. After incubation, samples were cooled and centrifuged 10 min at 10^4 rpm. Samples were dispensed in 96-well culture black clear bottom plates, and fluorescence was measured with a Varioskan microplate reader at λex = 540 nm and λem = 590 nm wavelengths. Protein concentration was measured by the Bradford protein assay. The levels of MDA were expressed as nmol/mg protein. Experiments were performed four times in triplicate.

[6] = Chemical reactivity with H2O2; format: physicochemical; settings: H2O2 500 µM, 37 °C, 4 h; pH ≥ 7.4
Procedure: In our case, before running the protection experiments under oxidative stress conditions, we carried out experiments to assess the potential reactivity of compounds 9, 11, 13, and 18 at four different concentrations (5, 10, 20, and 40 µM) with H2O2 500 µM at 37 °C for 4 h in DMEM:F12 (without phenol red, FBS, and cells). Curcumin was used as a control compound.

SH-SY5Y cells [7] = assay: Cytotoxicity, MTT assay, SH-SY5Y; format: cell-based; settings: Homo sapiens, MTT, cytotoxicity, read-out: SH-SY5Y IC50
Procedure: as §1, §2

[8] = Kinetic solubility by UV spectrometry; format: physicochemical; settings: PBS 50 mM, aqueous buffer, kinetic from dmso stock
Procedure: A modified protocol was used from that described by Hoelke et al. for the determination of the kinetic solubility from DMSO compound solutions. A compound calibration curve (compound concentration vs UV absorption) was prepared for each compound with concentrations of 10, 20, 50, 100, and 200 µM. Each compound dilution was carried out by pipetting defined volumes of a 20 mM stock compound solution in DMSO into vials and adding PBS 50 mM to reach a final volume of 1 mL/well. The final amount of DMSO per well was 2%. For the lower compound concentrations, an additional volume of DMSO was added to each well to reach 2% DMSO. Then, 200 µL of each dilution was transferred to a new 96-well culture plate for the measurement of the UV-spectra. One well in each row was left without a compound as a blank, and its UV absorbance was used as an offset correction. The experiments were performed in duplicate.
In parallel, compound saturation solutions were reached and filtered from 20 mM compound stock in DMSO: 10 µL of a 20 mM stock solution was dispensed into 190 µL of PBS 10 mM. The solutions were mixed, shaken on a microplate shaker for two hours, and then 160 µL of each solution was filtered and transferred to a new well plate for UV absorption measurement.
Measurement of the UV-spectra was performed using a Varioskan microplate reader, and spectra were taken in the range of 270–600 nm. Spectral bandwidth was set to 5 nm, and the data pint interval was 10 nm. The experiments were carried out in triplicate.

[9] = tested on: Caspase-3 activity in SH-SY5Y cells; assay: Caspase-3 activity; format: cell-based, human; settings: H2O2 500 µM 4 h; compound 24 h before
Procedure: Caspase-3 activity was measured using the Abcam fluorimetric kit (ab39383) according to the manufacturer’s instructions. Cells are washed with ice-cold PBS and lysed with lysis buffer. After compound and stressor treatments, SH-SY5Y cells were scraped off from p6 plates and collected in a 1.5 mL Eppendorf vial. The cell suspension was then centrifuged at 9000× g for 10 min at 4 °C. The supernatant was collected and stored at −80 °C for 24 h. Caspase 3 activity was measured as the ability of the cell extract to cleave the […] fluorochrome. The sample’s protein concentration was determined by the Bradford method. The reaction assay was performed by the addition of 50 μL of the cell lysate into the wells of a black 96-well culture plate followed by the addition of 50 μL of 2× reaction buffer containing DTT (10 mM) and caspase-3 substrate DEVD-AFC (final concentration 50 μM). Reagents were mixed by shaking the plate for 2 min at 300 rpm and then incubated at 37 °C for 2 h. Caspase-3 activity was measured as fluorescence intensity in a Varioskan microplate reader at λex = 400 nm and λem = 505 nm wavelengths. Relative fluorescence units (RFU)/mg of protein were calculated, and the fold increase in Caspase-3 activity was compared with that of the control.

SH-SY5Y cells [10] = assay: Neuroprotection in the 6-OHD neurotoxicity-induced model, MTT; format: cell-based, human; settings: 6-OHD 250 µM 48 h; compounds 24 h before
SH-SY5Y cells [11] = assay: Neuroprotection against H2O2-induced oxidative stress, MTT; settings: H2O2 250 µM 24 h; compounds 5-50 µM 24 h before; Figure 8
SH-SY5Y cells [12] = assay: Neuroprotection in the MPP+ neurotoxicity-induced model, MTT; format: cell-based, human; settings: MPP+ 700 µM 48 h; compounds 24 h before
diffSH-SY5Y cells = assay: Neuroprotection in differentiated SH-SY5Y cells, MTT; format: cell-based, human; settings: H2O2 500 µM 24 h; 0, 2, 5, 10, 20, and 40 µM 24 h before
[13] = previously reported; cited from earlier work
[14] = Ferric reducing antioxidant power (FRAP) assay; format: biochemical; parameters: FRAP Assay Trolox Equivalents: unit not given here
Procedure: FRAP reagent was prepared by mixing 10 mL of 300 mM acetate buffer with 1 mL of 10 mM 2,4,6-tripyridyl-S-triazine (TPTZ) in HCl 40 mM and 1mL of FeCl3·6H2O 20 mM. […] Trolox was used as assay control.

[15] = ABTS radical scavenging assay; format: biochemical
Procedure: The mixture was stored in the dark at room temperature for 16 h. […] All the compounds tested were dissolved in EtOH. […] The degree of decolorization was calculated as the percentage reduction of absorbance. […] Trolox was used as a reference antioxidant.

SH-SY5Y cells [16] = assay: Mitochondrial membrane potential (JC-1); format: cell-based, human; settings: 400 µM H2O2 4 h; compounds 24 h before at different concentrations
Procedure: The fluorescent dye 5,5′,6,6′-tetrachloro-1,1′,3,3′-tetraethylbenzimidazolylcarbocyanine iodide (JC-1) was used for measuring MMP [89]. A decrease in fluorescence intensity represents mitochondrial membrane depolarization. For fluorescence ratio detection under oxidative stress conditions, 96-well culture black clear bottom plates were seeded with 3 × 10^3 SH-SY5Y cells, and after 24-h incubation, they were treated with the test compound and left out for 24 h. Then, the cells were exposed to different H2O2 concentrations for 4 h. After the incubation period, the cells were washed twice with Hanks buffer and then stained with 5 µM JC-1 in culture media in the dark in a CO2 incubator at 37 °C for 20 min. At the end of the dye incubation period, cells were washed three times with Hanks buffer, and 200 µL of fresh buffer was added. Cells were analyzed with a Varioskan microplate reader. J-aggregate red fluorescence intensity was measured at λex = 535 nm and λem = 595 nm, while λem = 485 nm and λem = 535 nm was used for J-monomer green fluorescence. Results were expressed as the ratio of fluorescence intensity of J-aggregates to J-monomers. All the experiments were performed three times in quadruplicate for each compound concentration.

SH-SY5Y cells [17] = assay: Intracellular ROS levels (DCFH2-DA); format: cell-based, human; settings: 400 µM H2O2 4 h; compounds 24 h before
Procedure: Intracellular ROS levels were determined using dichlorofluorescein diacetate (DCFH2-DA) according to Wang et al.. DCFH2-DA is cleaved by intracellular esterases and is oxidized by ROS to form the fluorescent compound DCF, which represents the ROS level. Therefore, 3 × 10^3 SH-SY5Y cells were seeded in 96-well culture black clear bottom plates and after 24 h were treated with the test compound for an additional 24 h. Then, they were exposed to H2O2 for 4 h. After the incubation period, cells were washed twice with Hanks buffer and loaded with 20 µM DCFH2-DA (in FBS-free culture medium) for 40 min in dark at 37 °C in a CO2 incubator. At the end of the dye incubation period, they were washed twice with Hanks buffer to remove the extracellular DCFH2-DA. Fluorescence was measured with a Varioskan microplate reader at λex = 485 nm and λem = 535 nm wavelengths. Results are expressed as a percentage of the fluorescent increase compared with that of the control. All the experiments were performed at least three times in quadruplicate for each compound concentration.

OO [Compound H2O2, hydrogen peroxide, reference compound]
H2O2 lethal dose (LD50 / EC50) (SH-SY5Y cells [1]): 250 µM | H2O2 lethal dose (LD50 / EC50), resazurin method (SH-SY5Y cells [2]): 268 µM

COc1cc(/C=C/C(=O)CC(=O)/C=C/c2ccc(O)c(OC)c2)ccc1O [Curcumin, reference compound]
LDH leakage (SH-SY5Y cells [3]): reduced LDH leakage to some degree | IC50 (HepG2 cells): 110 ± 9.8 µM | Reduction in mitochondrial superoxide levels (SH-SY5Y cells [4]): only a clear reduction at 20 µM | Effect on MDA levels (SH-SY5Y cells [5]): reduction of MDA levels although without statistical significance | concentration decrease in the presence of H2O2 [6]: 30% | IC50 (SH-SY5Y cells [7]): 48.8 ± 5.1 µM | solubility [8]: < 50 µM | Caspase-3 activity reduction [9]: did not show any reduction in caspase-3 activity | Neuroprotection, cell viability (MTT), 6-OHD model (SH-SY5Y cells [10]): did not show any protection | Neuroprotection effect, cell viability (MTT) (SH-SY5Y cells [11]): only showed slight protection at concentrations 5 and 10 µM | Neuroprotection, cell viability (MTT), MPP+ model (SH-SY5Y cells [12]): did not yield any protection | Neuroprotection, diffSH-SY5Y cell viability (MTT) (diffSH-SY5Y cells): more irregular activity profile with some toxicity at 40 µM | water solubility [13]: < 0.6 µg/mL

COc1cc(C2=Nc3ccccc3NC(=O)C2)cc(OC)c1OC [Compound 20, 4-(3,4,5-Trimethoxyphenyl)-1H-1,5-benzodiazepin-2(3H)-one]
FRAP Assay Trolox Equivalents [14]: 0.90 | FRAP Assay Antioxidant Capacity (%) at 100 uM ([14]; compound at 100 uM): 48.1% | FRAP Assay Antioxidant Capacity (%) at 200 uM ([14]; compound at 200 uM): 63.8% | LDH leakage (SH-SY5Y cells [3]): reduced LDH leakage to some degree | IC50 (HepG2 cells): > 250 µM | IC50 (SH-SY5Y cells [7]): > 250 µM | IC50 ([15]; 30-min incubation): 269 ± 27.2 µM | ABTS Assay TEAC50 ([15]; Equivalent antioxidant capacity at Trolox 50 mM): 0.34 | ABTS Assay TEAC100 ([15]; Equivalent antioxidant capacity at Trolox 100 mM): 0.18 | MMP recovery (SH-SY5Y cells [16]): 10–25% | Intracellular ROS level reduction (SH-SY5Y cells [17]): lower ROS decrease | solubility [8]: > 200 µM | Neuroprotection, cell viability (MTT), 6-OHD model (SH-SY5Y cells [10]): significant neuroprotection | Neuroprotection effect, cell viability (MTT) (SH-SY5Y cells [11]): significantly improved | Neuroprotection, cell viability (MTT), MPP+ model (SH-SY5Y cells [12]): dose-dependent neuroprotection
